Patent US8715747B2, “Biocomposition stimulant of the immune system, anti-tumor and anti-HIV” (Pharmabrand S.A., priority 2007, dated 2014)

Experiments:
[1] = tested on: prostate cancer with node metastases and invasion of the bladder floor; assay: Clinical observation: patient with prostate cancer, tumor markers PSA and CEA; assay type: in vivo, human; parameters: PSA: unit not given beside the values
Source text: The patient is an individual diagnosed with prostate cancer with node metastases and invasion of the bladder floor. […] In March 2003, PSA level was 1096, the carcinoembryonic antigen was 6.85.
Carcinoembryonic antigen is a substance that usually only appears during fetal development and reappears again in adults who develop certain types of cancer: colon, rectum, stomach, esophagus, liver, pancreas, bladder, and breast (female mammary gland), lung and prostate as well.
The test of carcinoembryonic antigen (CEA) plays an important role in monitoring patient outcomes with cancer and metastasis. Even though it can not be considered a final marker, it serves as a useful guide. Its constant increase means that therapy has not achieved positive results. A decrease indicates a trend towards regression of the lesion.
The patient starts with a daily dose of 250 mg of Flutamide (fluxus) until reaching a PSA of 252. After 4 months, PSA reaches 525. From this point, the patient receives a double dose of Flutamide until registering a PSA of 256. CEA level was 5.84. After three months PSA rises again to 580. The tumor becomes resistant to hormone therapy. […] At first, PSA level was 600 and CEA level was 8.86. […] CEA level has dropped to 6.51. PSA level has changed to 700, a much better value if compared to the resistance to flutamide.
The patient underwent surgery to improve the diameter of the urethra and to remove the catheter that started to produce frequent bleeding. After the surgery, the patient suffered a massive infection due to Escherichia coli bacteria. They received anti-bacterial treatment with good results. PSA reached 698. After the surgery, the administration of the composition of the invention re-started, and after 2 months, PSA dropped to 88 and CEA to 5.04. During the following 2 months, PSA level reached 10 ng/ml level. After 70 days, PSA registers 4 ng/ml levels, which are considered normal values. CEA level was 3.97. Currently, the patient has returned to work (August, 2005). They had also had dialysis due to complications during the surgery. The patient has been taking the composition in daily basis during the next two years, maintaining a good health condition. Despite the three dialysis sessions per week that they are receiving, […] general state is good; they manage to do everything by themself and exercises every morning; PSA is 15 but CEA has always been 2.5 ng/ml. During these two years (March, 2007), they have kept a strict diet and has not received any other type of anti-tumor therapy.

S. aureus = assay: Microbiological test for bactericidal properties (inhibition halo), S. aureus; assay type: cell-based, Staphylococcus aureus; conditions: Gentamicin 2 μg/ml
Source text: Microbiological Tests to Determine Bactericidal Properties of the Aqueous and Ethanolic Extracts of the Composition of the Invention:
The inhibitory halo of FT001 registered a diameter of approximately 12 mm.

CC(C)C(=O)Nc1ccc([N+](=O)[O-])c(C(F)(F)F)c1 [Flutamide]
PSA ([1]; 250 mg Flutamide daily, after 4 months): 525 | PSA ([1]; daily dose of 250 mg Flutamide, start PSA 1096): 252 | CEA level ([1]; double dose of Flutamide): 5.84 | PSA ([1]; double dose of Flutamide): 256 | PSA ([1]; double dose of Flutamide, after three months, PSA rises again): 580

Gentamicin
halo of the lower standard (S. aureus): 12.2 mm
